Earlier results in patent publication US20160303177A1, “NUTRITIONAL SUPPLEMENT” (priority 2015, published 2016).

How the values were obtained:
[1] = 300 mgs of EGCG
[2] = washout period
[3] = training in set of 8-15 repetitions
[4] = 500 milligrams of nitrate, runners
[5] = healthy individuals
[6] = 11.2 mmol/kg of nitrate
[7] = two grams of L-Carnitine with 80 mg of carbohydrates
[8] = 300 mg per day
[9] = 600 mg prior to exercise
[10] = 400 mg at three times per day
[11] = 8 grams of L-Citrulline with 10 grams of carbohydrate
[12] = 6 grams
[13] = diseased hearts, 3 grams a day
[14] = 1500 mg per day for 6 weeks, mild to moderate erectile dysfunction
[15] = 17.25 grams per day, cyclists
[16] = 5 grams at three times a day along with other medications
[17] = given before animals were cardiac stressed

O=C(O[C@@H]1Cc2c(O)cc(O)cc2O[C@@H]1c1cc(O)c(O)c(O)c1)c1cc(O)c(O)c(O)c1 [EGCG, epigallocatechin gallate]
source of energy when taken with a meal [1]: a greater proportion of energy comes from dietary fat rather than carbohydrate

NCCC(=O)O [Beta-Alanine]
time after supplementation still in the muscles at higher levels [2]: 8 weeks
additional reps in the gym [3]: one to two additional reps

O=[N+]([O-])O [nitrate]
improvement of 5K time [4]: 41 s
reduced VO2 (oxygen consumption) ([5]; 0.1 mmol/kg of nitrate): 5.4%
increase in time to fatigue ([5]; 6.2 mmol/kg of nitrate): 15%
increase in energy efficiency [5]: 7.1%
reduction of oxygen muscle extraction [6]: 19%

C[N+](C)(C)C[C@H](O)CC(=O)[O-] [L-Carnitine]
fat burning [7]: increased fat burning
increase in muscle carnitine content [7]: 21%

COC1=C(OC)C(=O)C(C/C=C(\C)CC/C=C(\C)CC/C=C(\C)CC/C=C(\C)CC/C=C(\C)CC/C=C(\C)CC/C=C(\C)CC/C=C(\C)CC/C=C(\C)CCC=C(C)C)=C(C)C1=O [CoQ 10, Coenzyme Q10]
half-life (in vivo): 5.8 to 8.10 h
increase in CoQ10 concentrations (supplementation with 90-120 mg): 50-150%
fatigue during exertion [8]: reduce fatigue during the late portions of exertion

C[N+](C)(C)CCOP(=O)([O-])OC[C@H](O)CO [Alpha GPC, Alpha Glycerylphosphorylcholine]
peak increase in peak force production during resistance exercise [9]: 14%
cognition in mild to moderate Alzheimer's dementia [10]: cognitive improvement

NC(=O)NCCC[C@H](N)C(=O)O [L-Citrulline]
delay in fatigue [11]: statistically significant delay in fatigue
ATP production [12]: increased ATP production
ammonia production [12]: reduced ammonia production
muscle protein synthesis [12]: increased muscle protein synthesis
reduction of creatine depletion [12]: 28%
blood pressure [13]: decrease in blood pressure
exercise abilities [13]: increase in exercise abilities
right ventricular ejection fraction [13]: increase in right ventricular ejection fraction
men with increase in erection hardness [14]: 50%

O=C[C@H](O)[C@H](O)[C@H](O)CO [D-Ribose]
rates of ATP production [15]: increased the rates of ATP production back to pre-exercise levels
fibromyalgia symptoms [16]: marked decrease in symptoms
held out longer before ischemia compared to placebo [17]: 25%
